Source: US20210101874A1, “MICROBIOCIDAL OXADIAZOLE DERIVATIVES” (SYNGENTA PARTICIPATIONS AG, priority 2017, published 2021)

What was measured:
[1] = tested on: Puccinia recondita f. sp. Tritici; test: Puccinia recondita f. sp. tritici / wheat / leaf disc preventative (brown rust); format: in vivo; conditions: foliar, 200 ppm in the applied formulation, wheat leaf segments cv. Kanzler, inoculated 1 day after application, compared to untreated, assessed 7 to 9 days after application, read-out: disease control
Description: Leaf disks or leaf segments of various plant species are cut from plants grown in a greenhouse. The cut leaf disks or segments are placed in multiwell plates (24-well format) onto water agar. The leaf disks are sprayed with a test solution before (preventative) or after (curative) inoculation. Compounds to be tested are prepared as DMSO solutions (max. 10 mg/ml) which are diluted to the appropriate concentration with 0.025% Tween20 just before spraying. The inoculated leaf disks or segments are incubated under defined conditions (temperature, relative humidity, light, etc.) according to the respective test system. A single evaluation of disease level is carried out 3 to 14 days after inoculation, depending on the pathosystem. Percent disease control relative to the untreated check leaf disks or segments is then calculated. Wheat leaf segments cv. Kanzler were placed on agar in multiwell plates (24-well format) and sprayed with the formulated test compound diluted in water. The leaf disks were inoculated with a spore suspension of the fungus 1 day after application. The inoculated leaf segments were incubated at 19° C. and 75% relative humidity (rh) under a light regime of 12 hours light/12 hours darkness in a climate cabinet and the activity of a compound was assessed as percent disease control compared to untreated when an appropriate level of disease damage appears in untreated check leaf segments (7 to 9 days after application). The following compounds at 200 ppm in the applied formulation give at least 80% disease control in this test when compared to untreated control leaf disks under the same conditions, which show extensive disease development.

[2] = tested on: Puccinia recondita f. sp. Tritici; test: Puccinia recondita f. sp. tritici / wheat / leaf disc curative (brown rust); format: in vivo; conditions: foliar, 200 ppm in the applied formulation, wheat leaf segments cv. Kanzler, applied 1 day after inoculation, compared to untreated, assessed 6 to 8 days after application, read-out: disease control
Description: Leaf disks or leaf segments of various plant species are cut from plants grown in a greenhouse. The cut leaf disks or segments are placed in multiwell plates (24-well format) onto water agar. The leaf disks are sprayed with a test solution before (preventative) or after (curative) inoculation. Compounds to be tested are prepared as DMSO solutions (max. 10 mg/ml) which are diluted to the appropriate concentration with 0.025% Tween20 just before spraying. The inoculated leaf disks or segments are incubated under defined conditions (temperature, relative humidity, light, etc.) according to the respective test system. A single evaluation of disease level is carried out 3 to 14 days after inoculation, depending on the pathosystem. Percent disease control relative to the untreated check leaf disks or segments is then calculated.
Wheat leaf segments cv. Kanzler are placed on agar in multiwell plates (24-well format). The leaf segments are then inoculated with a spore suspension of the fungus. Plates were stored in darkness at 19° C. and 75% relative humidity. The formulated test compound diluted in water was applied 1 day after inoculation. The leaf segments were incubated at 19° C. and 75% relative humidity under a light regime of 12 hours light/12 hours darkness in a climate cabinet and the activity of a compound was assessed as percent disease control compared to untreated when an appropriate level of disease damage appears in untreated check leaf segments (6 to 8 days after application).
The following compounds at 200 ppm in the applied formulation give at least 80% disease control in this test when compared to untreated control leaf disks under the same conditions, which show extensive disease development.

[3] = tested on: Glomerella lagenarium (Colletotrichum lagenarium); test: Glomerella lagenarium (Colletotrichum lagenarium) liquid culture / cucumber / preventative (anthracnose); format: cell-based; conditions: Colletotrichum orbiculare; 20 ppm in the applied formulation; conidia in PDB nutrient broth, 24° C.; 3 to 4 days after application; compared to untreated; read-out: disease control (inhibition of growth measured photometrically)
Description: Mycelia fragments or conidia suspensions of a fungus prepared either freshly from liquid cultures of the fungus or from cryogenic storage, are directly mixed into nutrient broth. DMSO solutions of the test compound (max. 10 mg/ml) are diluted with 0.025% Tween20 by a factor of 50 and 10 µl of this solution is pipetted into a microtiter plate (96-well format). The nutrient broth containing the fungal spores/mycelia fragments is then added to give an end concentration of the tested compound. The test plates are incubated in the dark at 24° C. and 96% relative humidity. The inhibition of fungal growth is determined photometrically after 2 to 7 days, depending on the pathosystem, and percent antifungal activity relative to the untreated check is calculated. Conidia of the fungus from cryogenic storage are directly mixed into nutrient broth (PDB—potato dextrose broth). After placing a (DMSO) solution of test compound into a microtiter plate (96-well format), the nutrient broth containing the fungal spores is added. The test plates are incubated at 24° C. and the inhibition of growth is measured photometrically 3 to 4 days after application. The following compounds at 20 ppm in the applied formulation give at least 80% disease control in this test when compared to untreated control under the same conditions, which show extensive disease development.

SMILES | pest or weed control at 200 ppm [1] [%] | pest or weed control at 200 ppm [2] [%] | inhibition at 20 ppm [3] [%]
C#CCNS(=O)(=O)N(C)Cc1ccc(-c2noc(C(F)(F)F)n2)cc1 [Compound 1.19, 3-[4-[[methyl(prop-2-ynylsulfamoyl)amino]methyl]phenyl]-5-(trifluoromethyl)-1,2,4-oxadiazole] | ≥ 80 | ≥ 80 | ≥ 80
C#CCNS(=O)(=O)N(Cc1ccc(-c2noc(C(F)(F)F)n2)cc1)C1CC1 [Compound 1.20, 3-[4-[[cyclopropyl(prop-2-ynylsulfamoyl)amino]methyl]phenyl]-5-(trifluoromethyl)-1,2,4-oxadiazole] |  | ≥ 80 | ≥ 80
CCCS(=O)(=O)N(C)Cc1ccc(-c2noc(C(F)(F)F)n2)cc1 [Compound 1.25, N-methyl-N-[[4-[5-(trifluoromethyl)-1,2,4-oxadiazol-3-yl]phenyl]methyl] propane-1-sulfonamide] | ≥ 80 | ≥ 80 | ≥ 80
CCN(Cc1ccc(-c2noc(C(F)(F)F)n2)cc1)S(=O)(=O)c1ccn(C)n1 [Compound 1.29, N-ethyl-1-methyl-N-[[4-[5-(trifluoromethyl)-1,2,4-oxadiazol-3-yl]phenyl]methyl] pyrazole-3-sulfonamide] | ≥ 80 | ≥ 80 | ≥ 80
CCN(Cc1ccc(-c2noc(C(F)(F)F)n2)cc1)S(=O)(=O)C1CC1 [Compound 1.33, N-ethyl-N-[[4-[5-(trifluoromethyl)-1,2,4-oxadiazol-3-yl]phenyl]methyl] cyclopropanesulfonamide] | ≥ 80 | ≥ 80 | ≥ 80
C=CCS(=O)(=O)N(CC)Cc1ccc(-c2noc(C(F)(F)F)n2)cc1 [Compound 1.34, N-ethyl-N-[[4-[5-(trifluoromethyl)-1,2,4-oxadiazol-3-yl]phenyl]methyl] prop-2-ene-1-sulfonamide] | ≥ 80 | ≥ 80 | ≥ 80
CCN(Cc1ccc(-c2noc(C(F)(F)F)n2)cc1)S(=O)(=O)CC1CCOC1 (stereo not shown) [Compound 1.35, N-ethyl-1-tetrahydrofuran-3-yl-N-[[4-[5-(trifluoromethyl)-1,2,4-oxadiazol-3-yl]phenyl]methyl] methanesulfonamide] | ≥ 80 | ≥ 80 | ≥ 80
CCN(Cc1ccc(-c2noc(C(F)(F)F)n2)cc1)S(=O)(=O)CCOC [Compound 1.37, N-ethyl-2-methoxy-N-[[4-[5-(trifluoromethyl)-1,2,4-oxadiazol-3-yl]phenyl]methyl] ethanesulfonamide] | ≥ 80 | ≥ 80 | ≥ 80
C/C=C/S(=O)(=O)N(CC)Cc1ccc(-c2noc(C(F)(F)F)n2)cc1 [Compound 1.39, (E)-N-ethyl-N-[[4-[5-(trifluoromethyl)-1,2,4-oxadiazol-3-yl]phenyl]methyl] prop-1-ene-1-sulfonamide] | ≥ 80 | ≥ 80 | ≥ 80
CN(Cc1ccc(-c2noc(C(F)(F)F)n2)cc1)S(=O)(=O)c1ccn(C)n1 [Compound 1.41, N,1-dimethyl-N-[[4-[5-(trifluoromethyl)-1,2,4-oxadiazol-3-yl]phenyl]methyl] pyrazole-3-sulfonamide] | ≥ 80 | ≥ 80 | ≥ 80
C=CCS(=O)(=O)N(C)Cc1ccc(-c2noc(C(F)(F)F)n2)cc1 [Compound 1.46, N-methyl-N-[[4-[5-(trifluoromethyl)-1,2,4-oxadiazol-3-yl]phenyl]methyl] prop-2-ene-1-sulfonamide] | ≥ 80 | ≥ 80 | ≥ 80
CN(Cc1ccc(-c2noc(C(F)(F)F)n2)cc1)S(=O)(=O)CC1CCOC1 (stereo not shown) [Compound 1.47, N-methyl-1-tetrahydrofuran-3-yl-N-[[4-[5-(trifluoromethyl)-1,2,4-oxadiazol-3-yl]phenyl]methyl] methanesulfonamide] | ≥ 80 | ≥ 80 | ≥ 80
COCCS(=O)(=O)N(C)Cc1ccc(-c2noc(C(F)(F)F)n2)cc1 [Compound 1.49, 2-methoxy-N-methyl-N-[[4-[5-(trifluoromethyl)-1,2,4-oxadiazol-3-yl]phenyl]methyl] ethanesulfonamide] | ≥ 80 | ≥ 80 | ≥ 80
C/C=C/S(=O)(=O)N(C)Cc1ccc(-c2noc(C(F)(F)F)n2)cc1 [Compound 1.51, (E)-N-methyl-N-[[4-(5-(trifluoromethyl)-1,2,4-oxadiazol-3-yl]phenyl]methyl] prop-1-ene-1-sulfonamide] | ≥ 80 | ≥ 80 | ≥ 80
CN(Cc1ccc(-c2noc(C(F)(F)F)n2)cc1)S(=O)(=O)CC1CC1 [Compound 1.52, 1-cyclopropyl-N-methyl-N-[[4-[5-(trifluoromethyl)-1,2,4-oxadiazol-3-yl]phenyl]methyl] methanesulfonamide] | ≥ 80 | ≥ 80 | ≥ 80
CNS(=O)(=O)N(C)Cc1ccc(-c2noc(C(F)(F)F)n2)cc1 [Compound 1.56, 3-[4-[[methyl (methylsulfamoyl)amino]methyl]phenyl]-5-(trifluoromethyl)-1,2,4-oxadiazole] | ≥ 80 | ≥ 80 | ≥ 80
CCN(Cc1ccc(-c2noc(C(F)(F)F)n2)cc1)S(=O)(=O)CC(=O)OC [Compound 1.59, methyl 2-[ethyl-[[4-[5-(trifluoromethyl)-1,2,4-oxadiazol-3-yl]phenyl]methyl]sulfamoyl]acetate] | ≥ 80 | ≥ 80 | ≥ 80
C=CCS(=O)(=O)N(CCC)Cc1ccc(-c2noc(C(F)(F)F)n2)cc1 [Compound 1.70, N-propyl-N-[[4-[5-(trifluoromethyl)-1,2,4-oxadiazol-3-yl]phenyl]methyl] prop-2-ene-1-sulfonamide] |  | ≥ 80 | ≥ 80
CCCN(Cc1ccc(-c2noc(C(F)(F)F)n2)cc1)S(=O)(=O)N(C)C [Compound 1.81, N-(dimethylsulfamoyl)-N-[[4-[5-(trifluoromethyl)-1,2,4-oxadiazol-3-yl]phenyl]methyl] propan-1-amine] |  | ≥ 80 | ≥ 80
CC(C)S(=O)(=O)NCc1ccc(-c2noc(C(F)(F)F)n2)cc1F [Compound 2.21, N-[[2-fluoro-4-[5-(trifluoromethyl)-1,2,4-oxadiazol-3-yl]phenyl]methyl] propane-2-sulfonamide] |  | ≥ 80 | 
